# From US20260021296A1, “ION[…]” (KANEKA CORPORATION, priority 2023, published 2026)
# Assay: Evaluation of skin permeability of drug by iontophoresis in a vertical Franz cell
# Assay type: in vitro ADME, hairless rat (HWY/Slc)
# Method: The excised abdominal skin of a depilated male hairless rat (HWY/Slc, SPF, 5 weeks old) was punched into a 3.2 cm diameter circle and set in a vertical Franz cell. To the donor chamber of the Franz cell, 1.5 mL of a 0.5 wt % lanreotide acetate solution was added as a drug 31, and a zinc plate (0.5 cm×2 cm×0.5 mm) was immersed therein to form an anode 21. PBS was used as a receptor solution in the receptor chamber, and a silver/silver chloride rod (11 cm in length, 1 mm q in diameter) was inserted from the sampling port to form a cathode 22. The zinc plate and the silver/silver chloride rod were connected to the same power supply 10 and control unit 50 as those used in the skin irritability evaluation described above.
# Example 4: A pulse current with a frequency of […], a period of 100 ms, a duty ratio of 50%, a rectangular waveform, and a current density of 0.35 mA/cm^2 was applied.
# Comparative Example 6: Instead of a pulse current, a current with a substantially constant current value and a current density of 0.35 mA/cm^2 was applied.
# Comparative Example 7: No current was applied.
# In order to match the total time of current application (total amount of applied current), the current was applied for 6 hours in Example 4 and for 3 hours in Comparative Example 6. Example 4 and Comparative Examples 6 to 7 were all conducted with n=3.
# Three items were evaluated: the cumulative amount of drug permeated, the permeation rate, and the relationship between the cumulative permeation amount and the quantity of electricity.
# The receptor solution was sampled every hour, the amount of drug permeated through the skin was quantified by high-performance liquid chromatography (HPLC), and the above three items were evaluated with time. In Comparative Example 6, even after the end of the current application, the sampling was continued until 6 hours elapsed from the start of the test, as in Example 4 and Comparative Example 7. The HPLC measurement conditions are shown below.
smiles,measurement,setting,value
CC(C)[C@@H]1NC(=O)[C@H](CCCCN)NC(=O)[C@@H](Cc2c[nH]c3ccccc23)NC(=O)[C@H](Cc2ccc(O)cc2)NC(=O)[C@@H](NC(=O)[C@H](N)Cc2ccc3ccccc3c2)CSSC[C@@H](C(=O)N[C@H](C(N)=O)[C@@H](C)O)NC1=O [lanreotide acetate],time from start of test at which permeation of the drug through the skin was observed,"Comparative Example 6: substantially constant current 0.35 mA/cm^2, applied 3 hours, 0.5 wt % solution, n=3",about 2 hours
same,"drug skin permeability (rank among current conditions, FIGS. 8 and 9)",Comparative Example 7: no current applied,lowest
same,time from start of test until which permeation of the drug through the skin was not observed,"Comparative Example 7: no current applied, 0.5 wt % solution, n=3",≥ 4 h
same,"drug skin permeability (rank among current conditions, FIGS. 8 and 9)","Example 4: pulse current 5 Hz, duty ratio 50%, 0.35 mA/cm^2",highest
same,time from start of test at which permeation of the drug through the skin was observed,"Example 4: pulse current 5 Hz, duty ratio 50%, rectangular waveform, 0.35 mA/cm^2, applied 6 hours, 0.5 wt % solution, n=3",about 2 hours
same,cumulative permeation amount of Example 4 relative to Comparative Example 6 at the same quantity of electricity (final),"pulse current (Example 4) versus constant current (Comparative Example 6), 0.35 mA/cm^2, FIG. 10",≥ 5 times
